Active and inactive are the calls of the source. For most assays here, no stated cut-off is given here; in the data, actives have a measured IC50 and inactives only a lower limit.
Legend:
[1] = molecular target: T1, Replicative DNA helicase DnaB (Mycobacterium tuberculosis, UniProt P9WMR3); assay: DnaB intein splicing inhibitors, dose response, biochemical, cell-free fluorescence (AID 449749); format: functional
T1 sequence (P9WMR3 whole entry): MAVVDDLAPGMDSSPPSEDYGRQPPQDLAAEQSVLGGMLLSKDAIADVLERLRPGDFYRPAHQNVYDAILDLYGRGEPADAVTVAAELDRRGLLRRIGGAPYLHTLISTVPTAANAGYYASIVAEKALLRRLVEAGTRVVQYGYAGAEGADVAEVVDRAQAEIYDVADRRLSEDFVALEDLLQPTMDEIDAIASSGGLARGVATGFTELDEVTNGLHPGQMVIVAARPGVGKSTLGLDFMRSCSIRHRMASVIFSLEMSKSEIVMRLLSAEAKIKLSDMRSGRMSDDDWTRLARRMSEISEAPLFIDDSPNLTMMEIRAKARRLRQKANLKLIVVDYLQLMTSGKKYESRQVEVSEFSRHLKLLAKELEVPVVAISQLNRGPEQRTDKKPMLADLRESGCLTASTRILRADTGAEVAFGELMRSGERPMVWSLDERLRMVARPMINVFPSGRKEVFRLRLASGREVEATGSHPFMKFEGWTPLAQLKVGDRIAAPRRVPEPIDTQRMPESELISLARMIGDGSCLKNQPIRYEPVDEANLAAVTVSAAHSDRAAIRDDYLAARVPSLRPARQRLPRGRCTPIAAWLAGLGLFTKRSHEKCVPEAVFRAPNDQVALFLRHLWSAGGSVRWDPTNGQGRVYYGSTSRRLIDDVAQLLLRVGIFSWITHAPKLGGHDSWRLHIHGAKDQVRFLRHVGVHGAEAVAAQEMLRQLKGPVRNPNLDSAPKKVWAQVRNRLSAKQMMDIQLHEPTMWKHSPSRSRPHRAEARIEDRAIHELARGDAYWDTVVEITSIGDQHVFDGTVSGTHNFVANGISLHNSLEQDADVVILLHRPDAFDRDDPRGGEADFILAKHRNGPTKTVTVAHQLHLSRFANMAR

[2] = molecular target: T2, Sentrin-specific protease 8 (Homo sapiens, UniProt Q96LD8); format: functional;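 further: luminescence read-out of SENP8 inhibition, dose-response confirmation following an ultra-high-throughput screen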
T2 sequence (Q96LD8 whole entry): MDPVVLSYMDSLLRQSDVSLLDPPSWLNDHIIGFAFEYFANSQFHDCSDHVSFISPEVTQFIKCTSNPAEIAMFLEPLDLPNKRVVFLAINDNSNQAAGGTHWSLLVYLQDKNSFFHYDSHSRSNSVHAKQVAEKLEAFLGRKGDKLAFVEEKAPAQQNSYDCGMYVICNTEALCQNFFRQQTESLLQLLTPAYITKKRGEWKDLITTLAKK

Caspase-3 = molecular target: T3, Caspase-3 (Homo sapiens, UniProt P42574); format: functional;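 further: Dose-response selectivity test against caspase-3 for candidate inhibitors of sentrin-specific proteases (SENPs)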
T3 sequence (P42574 whole entry): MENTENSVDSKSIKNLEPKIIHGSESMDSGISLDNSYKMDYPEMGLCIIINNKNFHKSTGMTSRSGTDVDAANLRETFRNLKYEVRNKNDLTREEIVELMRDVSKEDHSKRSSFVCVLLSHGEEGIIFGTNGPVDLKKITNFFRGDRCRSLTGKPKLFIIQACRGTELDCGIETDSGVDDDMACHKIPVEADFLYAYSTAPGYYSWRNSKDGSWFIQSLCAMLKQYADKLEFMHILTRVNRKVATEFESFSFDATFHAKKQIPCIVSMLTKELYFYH

[3] = molecular target: T4, Apoptotic protease-activating factor 1 (Homo sapiens, UniProt O14727); format: functional
T4 sequence (O14727 whole entry): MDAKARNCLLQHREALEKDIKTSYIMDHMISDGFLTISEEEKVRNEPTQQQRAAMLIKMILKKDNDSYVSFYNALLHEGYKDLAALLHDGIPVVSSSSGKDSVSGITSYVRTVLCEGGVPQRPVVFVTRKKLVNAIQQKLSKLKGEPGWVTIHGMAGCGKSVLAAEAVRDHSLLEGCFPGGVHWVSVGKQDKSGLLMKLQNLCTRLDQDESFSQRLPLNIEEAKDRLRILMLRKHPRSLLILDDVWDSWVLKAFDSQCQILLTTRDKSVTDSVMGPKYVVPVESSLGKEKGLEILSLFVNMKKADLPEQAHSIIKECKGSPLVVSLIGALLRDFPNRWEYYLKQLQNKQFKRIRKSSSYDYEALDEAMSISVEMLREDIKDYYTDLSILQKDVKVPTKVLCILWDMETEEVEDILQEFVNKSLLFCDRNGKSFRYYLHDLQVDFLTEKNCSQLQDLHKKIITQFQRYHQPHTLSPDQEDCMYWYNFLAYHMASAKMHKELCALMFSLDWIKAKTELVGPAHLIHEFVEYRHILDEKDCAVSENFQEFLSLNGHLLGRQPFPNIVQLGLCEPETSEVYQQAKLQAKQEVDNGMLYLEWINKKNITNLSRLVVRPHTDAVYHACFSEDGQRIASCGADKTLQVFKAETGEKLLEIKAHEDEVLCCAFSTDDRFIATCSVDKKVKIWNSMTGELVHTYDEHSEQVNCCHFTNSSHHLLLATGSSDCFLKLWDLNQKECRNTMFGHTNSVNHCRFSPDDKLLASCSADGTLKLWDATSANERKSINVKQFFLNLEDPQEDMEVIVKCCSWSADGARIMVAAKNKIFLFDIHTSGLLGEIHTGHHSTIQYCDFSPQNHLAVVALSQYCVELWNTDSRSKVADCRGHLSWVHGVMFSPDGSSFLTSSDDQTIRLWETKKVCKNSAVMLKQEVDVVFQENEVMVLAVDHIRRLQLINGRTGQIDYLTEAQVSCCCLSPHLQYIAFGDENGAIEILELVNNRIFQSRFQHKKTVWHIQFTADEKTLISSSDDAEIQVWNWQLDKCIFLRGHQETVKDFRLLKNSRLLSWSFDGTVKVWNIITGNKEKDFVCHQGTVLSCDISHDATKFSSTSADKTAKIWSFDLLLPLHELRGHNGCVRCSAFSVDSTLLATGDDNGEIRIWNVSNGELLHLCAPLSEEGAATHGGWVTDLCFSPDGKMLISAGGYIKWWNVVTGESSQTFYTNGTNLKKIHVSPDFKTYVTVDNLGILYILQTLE

[4] = molecular target: T5, Tyrosyl-DNA phosphodiesterase 2 (Homo sapiens, UniProt O95551); assay: potency against TDP2 phosphodiesterase activity – biochemical, epi absorbance, IC50, dose response (AID 743297)
T5 sequence (O95551 whole entry): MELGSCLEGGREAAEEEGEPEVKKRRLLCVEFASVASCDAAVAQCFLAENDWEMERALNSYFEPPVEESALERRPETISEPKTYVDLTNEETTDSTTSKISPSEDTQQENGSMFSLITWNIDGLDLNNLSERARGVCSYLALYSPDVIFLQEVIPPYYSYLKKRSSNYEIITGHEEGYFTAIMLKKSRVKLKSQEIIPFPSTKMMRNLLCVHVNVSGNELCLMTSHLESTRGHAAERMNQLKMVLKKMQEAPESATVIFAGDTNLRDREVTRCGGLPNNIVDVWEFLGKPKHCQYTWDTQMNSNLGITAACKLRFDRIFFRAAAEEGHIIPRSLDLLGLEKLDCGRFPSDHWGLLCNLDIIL

SMILES | AC50 [1] | IC50 [2] | IC50 (Caspase-3) | IC50 [3] | IC50 [4]
COC(=O)C[C@]1(C(=O)OC)CN(C#N)N(c2ccc(Cl)cc2)C12c1ccccc1-c1ccccc12 | 1.83 µM (active) | – | – | – | –
O=C(Nc1ccc(C#Cc2ccccc2)cc1)C1CC1 | – | > 100 µM (inactive) | 43.6 µM (active) | – | –
CCCCn1c(NC(=O)c2ccco2)c(C(=O)OCC)c2nc3ccccc3nc21 | – | 4.36 µM (active) | 15.8 µM (active) | 13 µM (active) | > 128 µM (inactive)
Cc1ccccc1NC1=C/C(=N\S(=O)(=O)c2ccc(C(=O)O)cc2)c2ccccc2C1=O | 105 µM (active) | – | – | 1.59 µM (active) | 1.41 µM (active)
Cc1ccc(NC2=C/C(=N/S(=O)(=O)c3cccs3)c3ccccc3C2=O)cc1 | 0.301 µM (active) | 0.244 µM (active) | 2.1 µM (active) | 0.453 µM (active) | 3.3 µM (active)
COc1ccc(-c2cc(-c3ccc(C)cc3)[nH]n2)c(O)c1 | – | 34.6 µM (active) | 76.5 µM (active) | – | –
